From the supplement of paper PMC12463676, “Small-molecule dissolution of stress granules by redox modulation benefits ALS models” (Nature Chemical Biology, 2025) come the findings set out here.

Compound in one assay: NC(=O)CCCCC1CCSS1 [lipoamide]
In words: thermal stability z-score vs DMSO; higher = more thermally stabilized by treatment. Conditions: HeLa, lipoamide concentration 100 µM. As to the method:
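Cellular thermal proteome profiling in HeLa cells. Cells were treated with 100 µM lipoamide for 1 h, with or without 1 mM arsenate for a further 1 h, then heated to ten temperatures (37-66.3 °C), and soluble protein was quantified by TMT mass spectrometry relative to 0.1% DMSO controls. The thermal stability score (sum of log2 fold changes minus the abundance score) was transformed to a z-score; mean of n = 3 experiments.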

Compound in the next assay: O=[As]([O-])(O)O.[K+] [potassium arsenate]
Described as above. Conditions: HeLa; arsenate concentration 1 mM. The protocol:
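Cellular thermal proteome profiling in HeLa cells treated with 1 mM arsenate for 1 h (DMSO pretreatment), heated to ten temperatures (37-66.3 °C). Soluble protein was quantified by TMT mass spectrometry relative to DMSO controls; the thermal stability score was transformed to a z-score; mean of n = 3 experiments.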

Setting [1] is: arsenate co-treatment: 1 mM arsenate 1 h.
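Further: each temperature applied for 3 min, abundance score taken as mean log2 fold change at the two lowest temperatures, z-score obtained by mean subtraction and division by SD.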

UniProt Q9UN37, sequence (Q9UN37 whole entry): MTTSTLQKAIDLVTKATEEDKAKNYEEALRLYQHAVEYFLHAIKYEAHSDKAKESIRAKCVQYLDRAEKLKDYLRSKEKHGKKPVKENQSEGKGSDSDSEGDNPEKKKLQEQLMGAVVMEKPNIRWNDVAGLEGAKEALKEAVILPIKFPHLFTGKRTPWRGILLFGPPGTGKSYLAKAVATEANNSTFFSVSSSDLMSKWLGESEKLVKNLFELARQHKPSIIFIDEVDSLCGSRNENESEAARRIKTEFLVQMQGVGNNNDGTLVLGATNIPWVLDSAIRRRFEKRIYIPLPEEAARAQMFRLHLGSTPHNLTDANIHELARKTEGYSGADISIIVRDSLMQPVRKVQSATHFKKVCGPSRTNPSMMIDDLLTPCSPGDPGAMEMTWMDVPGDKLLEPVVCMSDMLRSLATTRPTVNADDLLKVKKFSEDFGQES
UniProt Q96PM5, sequence (Q96PM5 whole entry): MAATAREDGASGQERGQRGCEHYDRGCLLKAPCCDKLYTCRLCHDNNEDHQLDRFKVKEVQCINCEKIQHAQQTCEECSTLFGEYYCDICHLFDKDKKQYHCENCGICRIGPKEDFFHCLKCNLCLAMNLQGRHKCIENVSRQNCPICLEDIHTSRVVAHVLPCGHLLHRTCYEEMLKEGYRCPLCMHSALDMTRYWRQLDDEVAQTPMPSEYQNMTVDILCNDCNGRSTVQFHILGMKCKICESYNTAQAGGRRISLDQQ
UniProt Q16836, sequence (Q16836 whole entry): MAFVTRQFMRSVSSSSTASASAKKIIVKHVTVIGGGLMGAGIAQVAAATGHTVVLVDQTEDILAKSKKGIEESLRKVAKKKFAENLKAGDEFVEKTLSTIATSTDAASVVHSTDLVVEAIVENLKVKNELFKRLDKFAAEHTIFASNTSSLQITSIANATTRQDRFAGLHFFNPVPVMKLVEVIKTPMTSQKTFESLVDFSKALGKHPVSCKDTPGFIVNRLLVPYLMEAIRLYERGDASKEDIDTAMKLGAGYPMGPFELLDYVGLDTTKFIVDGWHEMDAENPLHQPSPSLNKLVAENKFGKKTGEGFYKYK
UniProt O43292, sequence (O43292 whole entry): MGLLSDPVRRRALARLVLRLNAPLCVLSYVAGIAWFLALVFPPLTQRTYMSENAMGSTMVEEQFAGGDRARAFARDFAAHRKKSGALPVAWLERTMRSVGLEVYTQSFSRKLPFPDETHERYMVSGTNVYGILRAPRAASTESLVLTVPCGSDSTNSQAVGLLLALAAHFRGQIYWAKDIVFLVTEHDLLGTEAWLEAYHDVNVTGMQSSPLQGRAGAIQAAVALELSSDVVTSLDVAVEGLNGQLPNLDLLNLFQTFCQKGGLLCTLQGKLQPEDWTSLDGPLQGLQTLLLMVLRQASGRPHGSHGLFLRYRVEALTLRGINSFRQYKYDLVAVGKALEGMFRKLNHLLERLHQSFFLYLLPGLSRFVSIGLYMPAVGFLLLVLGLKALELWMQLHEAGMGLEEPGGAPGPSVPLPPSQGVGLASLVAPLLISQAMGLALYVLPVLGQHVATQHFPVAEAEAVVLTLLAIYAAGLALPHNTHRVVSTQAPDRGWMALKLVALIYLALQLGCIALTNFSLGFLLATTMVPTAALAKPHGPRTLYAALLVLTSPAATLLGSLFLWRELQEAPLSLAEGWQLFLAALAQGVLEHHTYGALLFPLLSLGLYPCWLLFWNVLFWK
UniProt Q14103, sequence (Q14103 whole entry): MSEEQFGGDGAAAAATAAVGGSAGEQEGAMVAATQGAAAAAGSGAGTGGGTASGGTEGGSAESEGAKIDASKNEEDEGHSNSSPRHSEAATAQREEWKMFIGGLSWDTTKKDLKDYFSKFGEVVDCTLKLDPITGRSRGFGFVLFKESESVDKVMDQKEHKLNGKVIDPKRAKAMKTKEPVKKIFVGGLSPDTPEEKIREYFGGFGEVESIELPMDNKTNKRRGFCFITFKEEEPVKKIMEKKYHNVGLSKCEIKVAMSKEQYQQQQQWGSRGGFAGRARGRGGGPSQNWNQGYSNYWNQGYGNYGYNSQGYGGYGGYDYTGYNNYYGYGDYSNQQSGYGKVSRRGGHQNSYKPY
UniProt Q9HCS7, sequence (Q9HCS7 whole entry): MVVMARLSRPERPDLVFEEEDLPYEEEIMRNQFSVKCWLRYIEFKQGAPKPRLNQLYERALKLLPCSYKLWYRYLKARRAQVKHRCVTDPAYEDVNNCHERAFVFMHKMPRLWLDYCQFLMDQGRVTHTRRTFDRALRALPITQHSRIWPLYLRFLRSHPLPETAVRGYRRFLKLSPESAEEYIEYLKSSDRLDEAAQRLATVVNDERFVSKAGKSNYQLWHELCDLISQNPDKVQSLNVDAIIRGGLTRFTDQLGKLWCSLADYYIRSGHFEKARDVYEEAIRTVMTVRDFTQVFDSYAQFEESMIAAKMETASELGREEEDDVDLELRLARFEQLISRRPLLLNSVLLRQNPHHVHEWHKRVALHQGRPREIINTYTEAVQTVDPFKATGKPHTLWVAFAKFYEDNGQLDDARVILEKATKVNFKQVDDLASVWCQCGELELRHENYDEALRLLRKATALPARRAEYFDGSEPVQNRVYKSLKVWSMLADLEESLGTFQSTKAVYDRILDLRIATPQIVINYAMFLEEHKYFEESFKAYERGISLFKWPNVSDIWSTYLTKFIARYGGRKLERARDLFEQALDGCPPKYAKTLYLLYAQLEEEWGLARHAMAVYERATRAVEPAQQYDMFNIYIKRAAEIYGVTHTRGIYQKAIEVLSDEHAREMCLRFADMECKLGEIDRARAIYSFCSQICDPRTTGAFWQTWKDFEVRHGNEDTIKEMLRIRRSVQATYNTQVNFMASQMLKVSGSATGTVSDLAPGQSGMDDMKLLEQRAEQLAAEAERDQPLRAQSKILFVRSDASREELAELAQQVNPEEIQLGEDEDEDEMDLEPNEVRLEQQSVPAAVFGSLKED
UniProt Q99733, sequence (Q99733 whole entry): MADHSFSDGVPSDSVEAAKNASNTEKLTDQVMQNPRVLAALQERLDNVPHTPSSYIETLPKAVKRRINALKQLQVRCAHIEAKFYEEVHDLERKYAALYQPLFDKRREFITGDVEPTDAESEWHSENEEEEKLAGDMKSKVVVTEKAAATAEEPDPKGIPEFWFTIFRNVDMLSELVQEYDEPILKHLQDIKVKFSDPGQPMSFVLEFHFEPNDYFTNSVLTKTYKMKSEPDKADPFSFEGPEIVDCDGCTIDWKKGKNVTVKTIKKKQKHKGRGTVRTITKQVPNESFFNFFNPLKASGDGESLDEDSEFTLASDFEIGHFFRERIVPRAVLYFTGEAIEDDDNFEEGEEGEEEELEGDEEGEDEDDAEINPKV
UniProt Q9GZQ3, sequence (Q9GZQ3 whole entry): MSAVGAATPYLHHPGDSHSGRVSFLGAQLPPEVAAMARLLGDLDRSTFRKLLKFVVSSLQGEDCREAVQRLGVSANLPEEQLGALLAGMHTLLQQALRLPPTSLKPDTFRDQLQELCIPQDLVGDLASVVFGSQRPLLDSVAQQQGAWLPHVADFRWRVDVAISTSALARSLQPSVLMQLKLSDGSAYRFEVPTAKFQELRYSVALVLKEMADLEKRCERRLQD
UniProt Q9GZR2, sequence (Q9GZR2 whole entry): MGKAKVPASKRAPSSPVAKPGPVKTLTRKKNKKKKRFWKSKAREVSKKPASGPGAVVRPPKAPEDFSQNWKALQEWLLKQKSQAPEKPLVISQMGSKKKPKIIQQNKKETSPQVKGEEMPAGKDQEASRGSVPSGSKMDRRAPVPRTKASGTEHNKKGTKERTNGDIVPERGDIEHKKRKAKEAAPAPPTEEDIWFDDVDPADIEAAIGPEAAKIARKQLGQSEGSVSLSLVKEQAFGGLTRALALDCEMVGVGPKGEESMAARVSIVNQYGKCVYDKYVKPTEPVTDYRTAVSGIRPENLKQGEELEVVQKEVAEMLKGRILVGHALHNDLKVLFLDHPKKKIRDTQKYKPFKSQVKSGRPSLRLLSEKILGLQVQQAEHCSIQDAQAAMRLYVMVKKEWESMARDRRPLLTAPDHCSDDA
UniProt O75531, sequence (O75531 whole entry): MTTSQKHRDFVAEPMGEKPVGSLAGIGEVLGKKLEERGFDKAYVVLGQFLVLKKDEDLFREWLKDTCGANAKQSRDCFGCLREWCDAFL
UniProt Q9NP81, sequence (Q9NP81 whole entry): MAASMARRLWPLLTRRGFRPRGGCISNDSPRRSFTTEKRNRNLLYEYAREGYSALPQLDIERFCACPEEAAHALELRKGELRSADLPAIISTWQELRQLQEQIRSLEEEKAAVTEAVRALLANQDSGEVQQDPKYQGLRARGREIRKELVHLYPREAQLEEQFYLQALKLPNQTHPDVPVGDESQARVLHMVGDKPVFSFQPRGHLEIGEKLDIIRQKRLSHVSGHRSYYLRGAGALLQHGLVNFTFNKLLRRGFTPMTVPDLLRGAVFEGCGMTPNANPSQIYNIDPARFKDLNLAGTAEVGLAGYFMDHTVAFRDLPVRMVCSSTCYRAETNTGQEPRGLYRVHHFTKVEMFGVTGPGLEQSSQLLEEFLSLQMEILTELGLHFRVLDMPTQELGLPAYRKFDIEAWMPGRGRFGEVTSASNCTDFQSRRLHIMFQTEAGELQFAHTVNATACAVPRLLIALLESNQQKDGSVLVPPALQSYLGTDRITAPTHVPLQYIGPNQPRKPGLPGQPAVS
UniProt P54252, sequence (P54252 whole entry): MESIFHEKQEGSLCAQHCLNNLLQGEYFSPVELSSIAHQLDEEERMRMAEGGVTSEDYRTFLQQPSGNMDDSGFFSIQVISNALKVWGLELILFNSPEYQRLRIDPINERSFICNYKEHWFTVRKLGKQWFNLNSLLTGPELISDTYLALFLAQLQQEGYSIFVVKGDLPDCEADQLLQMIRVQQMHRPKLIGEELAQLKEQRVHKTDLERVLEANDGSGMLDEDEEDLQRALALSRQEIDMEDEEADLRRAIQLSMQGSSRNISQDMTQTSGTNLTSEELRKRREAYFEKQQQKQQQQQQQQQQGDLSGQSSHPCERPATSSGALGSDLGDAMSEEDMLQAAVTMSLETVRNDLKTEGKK

For the target TBC1D24 (UniProt Q9ULP9), the thermal stability z-score is -0.346 with lipoamide (setting [1]), -0.491 with lipoamide (arsenate co-treatment: none) and 0.0941 with potassium arsenate.
Taken in the same sequence, the figures for HADH (UniProt Q16836) were 0.136, 0.477 and -0.432.
Taken in the same sequence, the figures for TBX3 (UniProt O15119) were 0.163, -0.0268 and 0.206.
Taken in the same sequence, the figures for ATXN3 (UniProt P54252) were 0.199, 0.278 and -0.115.
On to CCT2 (UniProt P78371), for which the thermal stability z-score with lipoamide (setting [1]) was 0.119; with lipoamide (arsenate co-treatment: none), -0.107; in the assay with potassium arsenate, -0.0294.
The like results for CXORF56 (UniProt Q9H5V9) were, in that order, 0.162, -0.0486 and -3.91.
Regarding VPS13C (UniProt Q709C8), the values for the thermal stability z-score with lipoamide (setting [1]), in the assay with lipoamide (arsenate co-treatment: none) and in the assay with potassium arsenate were 0.038, -0.033 and -0.213, respectively.
Taken in the same sequence, the figures for TMEM55B (UniProt Q86T03) were 0.572, 0.963 and 0.592.
The like results for RPS16 (UniProt P62249) were, in that order, 1.04, 0.549 and -0.329.
Consider NAP1L4 (UniProt Q99733), for which the thermal stability z-score with lipoamide (setting [1]) is -0.0111; with lipoamide (arsenate co-treatment: none) it was 0.113; with potassium arsenate, -0.384.
The like results for MDH2 (UniProt P40926) were, in that order, 0.922, 0.615 and -0.963.
The like results for SNX17 (UniProt Q15036) were, in that order, -0.581, 0.118 and -0.423.
Taken in the same sequence, the figures for DNMT1 (UniProt P26358) were -0.115, 0.0323 and -0.517.
As for XAB2 (UniProt Q9HCS7), the thermal stability z-score was -0.104 with lipoamide (setting [1]), -0.113 with lipoamide (arsenate co-treatment: none) and 0.256 with potassium arsenate.
The like results for TFB1M (UniProt Q8WVM0) were, in that order, -0.367, 0.233 and 0.0871.
Taken in the same sequence, the figures for ACACA (UniProt Q13085) were -0.534, -0.289 and 0.153.
The like results for SARS2 (UniProt Q9NP81) were, in that order, -0.781, -0.828 and -0.442.
With TRIM5 (UniProt Q9C035), the figures for the thermal stability z-score with lipoamide (setting [1]), with lipoamide (arsenate co-treatment: none) and with potassium arsenate were 0.224, 0.183 and 0.259, respectively.
The like results for SNAP47 (UniProt Q5SQN1) were, in that order, -0.303, -0.252 and -0.104.
Taken in the same sequence, the figures for COL4A2 (UniProt P08572) were -1.15, -0.802 and 0.138.
The like results for NMT1 (UniProt P30419) were, in that order, 0.237, -0.0177 and 1.15.
Consider WDR77 (UniProt Q9BQA1), for which the thermal stability z-score with lipoamide (setting [1]) was -0.484; with lipoamide (arsenate co-treatment: none), 0.78; with potassium arsenate, -0.717.
The like results for ARPC4 (UniProt P59998) were, in that order, 1.12, 0.913 and 0.369.
Turning to PJA2 (UniProt O43164), the results for the thermal stability z-score with lipoamide (setting [1]), in the assay with lipoamide (arsenate co-treatment: none) and with potassium arsenate were -0.202, -0.163 and -3.43, respectively.
Taken in the same sequence, the figures for VWA9 (UniProt Q96SY0) were 0.159, 0.404 and -0.114.
Taken in the same sequence, the figures for TDG (UniProt Q13569) were -0.0217, -0.0438 and -0.322.
The like results for ASNSD1 (UniProt Q9NWL6) were, in that order, -0.942, -0.0608 and -0.734.
As to GPAA1 (UniProt O43292), the thermal stability z-score with lipoamide (setting [1]) was -1.09; in the assay with lipoamide (arsenate co-treatment: none), -1.12; in the assay with potassium arsenate, 0.145.
Regarding SLC3A2 (UniProt P08195), the thermal stability z-score turned out to be 0.528 in the assay with lipoamide (setting [1]), 0.49 with lipoamide (arsenate co-treatment: none) and 0.0559 with potassium arsenate.
As to C10ORF76 (UniProt Q5T2E6), the thermal stability z-score is -0.9 with lipoamide (setting [1]), 0.306 with lipoamide (arsenate co-treatment: none) and 0.613 with potassium arsenate.
Turning to SURF6 (UniProt O75683), the thermal stability z-score was -0.283 with lipoamide (setting [1]), -1.48 in the assay with lipoamide (arsenate co-treatment: none) and -2.85 with potassium arsenate.
Taken in the same sequence, the figures for PHKB (UniProt Q93100) were 0.125, 0.135 and 0.278.
Taken in the same sequence, the figures for HNRNPD (UniProt Q14103) were 0.285, -0.223 and -0.562.
The like results for GARS (UniProt P41250) were, in that order, -0.224, -0.223 and -0.919.
As to DNAJC8 (UniProt O75937), the values for the thermal stability z-score with lipoamide (setting [1]), with lipoamide (arsenate co-treatment: none) and with potassium arsenate were 0.653, 0.49 and 1.25, respectively.
Taken in the same sequence, the figures for COMMD5 (UniProt Q9GZQ3) were -0.212, 0.573 and 0.0506.
The like results for RCHY1 (UniProt Q96PM5) were, in that order, -0.131, -0.0834 and -0.571.
Taken in the same sequence, the figures for VPS4A (UniProt Q9UN37) were -0.367, -0.472 and -0.19.
As to BANF1 (UniProt O75531), the thermal stability z-score is 0.324 with lipoamide (setting [1]), -0.358 with lipoamide (arsenate co-treatment: none) and -2.36 in the assay with potassium arsenate.
Taken in the same sequence, the figures for BMP1 (UniProt P13497) were 0.492, 0.427 and 0.347.
The like results for PNP (UniProt P00491) were, in that order, 0.446, 0.411 and 0.178.
Taken in the same sequence, the figures for REXO4 (UniProt Q9GZR2) were -0.103, -0.118 and -0.149.
